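Exposure lasted 48 hours, with cells grown in 96-well plates and compounds tested at five concentrations. Here, GI50 denotes the concentration required for 50% inhibition of growth. TGI marks complete inhibition of growth.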 Some results are limits rather than exact numbers.

Among the test systems are HOP-62 NSCLC; SF-295 CNS; CCRF-CEM leukemia; HCC-2998 colon; IGROV1 ovarian; U251 CNS; NCI-H226 lung; OVCAR-4 ovarian; HCT-15 colon.
Common to all, as to test: growth of human tumour cells (NCI), 48 h

`Cc1ccc(NC(=O)CSc2nc(=O)[nH]c3nc[nH]c23)cc1`: the TGI with HOP-62 NSCLC, with SF-295 CNS, in the test on CCRF-CEM leukemia, in the test with HCC-2998 colon, with IGROV1 ovarian and with U251 CNS was over 100 µM in each case. Further, the TGI with NCI-H226 lung, in the test on OVCAR-4 ovarian and in the test on HCT-15 colon was over 100 µM in each case.

On to `CC(=O)OC1COC(Nc2nc(NCc3ccccc3)n(C)c(=O)c2N=O)C(OC(C)=O)C1OC(C)=O` (stereo unspecified), for which the TGI in the test with HOP-62 NSCLC, in the test on SF-295 CNS, in the test on CCRF-CEM leukemia, with HCC-2998 colon, in the test on IGROV1 ovarian and with U251 CNS was over 10 µM throughout. The TGI with NCI-H226 lung, in the test with OVCAR-4 ovarian and in the test on HCT-15 colon was over 10 µM in each case.

In the case of `NC1=CN2c3ccccc3N(CC(=O)O)C2C=C1` (stereo unspecified), the TGI with HOP-62 NSCLC, with SF-295 CNS, with CCRF-CEM leukemia, in the test with HCC-2998 colon, with IGROV1 ovarian and with U251 CNS was over 100 µM in each case. The TGI in the test on NCI-H226 lung, in the test with OVCAR-4 ovarian and in the test on HCT-15 colon was over 100 µM throughout.

As for `O=C(N/N=C(/COc1ccc([N+](=O)[O-])cc1)N=Cc1ccncc1)c1ccncc1`, the TGI in the test with HOP-62 NSCLC, in the test with SF-295 CNS, in the test with CCRF-CEM leukemia, in the test on HCC-2998 colon, with IGROV1 ovarian and in the test on U251 CNS was over 100 µM in each case. Moreover, the TGI in the test on NCI-H226 lung, in the test on OVCAR-4 ovarian and in the test with HCT-15 colon was over 100 µM each time.

Turning to `O=C(O)Cc1ccc2[nH]c(O)c(C3=Nc4ccccc4C3=O)c2c1`, the TGI was over 100 µM with HOP-62 NSCLC; over 100 µM in the test with SF-295 CNS; over 100 µM in the test with CCRF-CEM leukemia; over 100 µM in the test on HCC-2998 colon; 48.2 µM in the test on IGROV1 ovarian; over 100 µM with U251 CNS. Further, the TGI in the test on NCI-H226 lung, in the test on OVCAR-4 ovarian and in the test with HCT-15 colon was over 100 µM in each case.

For `CC(=O)N=C1N(/C=C2\C(=O)Oc3ccccc3C2=O)C(=O)/C(=C/c2ccc(NC(C)=O)cc2)N1C`, the TGI in the test with HOP-62 NSCLC, in the test with SF-295 CNS, in the test with CCRF-CEM leukemia, in the test on HCC-2998 colon, in the test with IGROV1 ovarian and with U251 CNS was over 100 µM throughout. Besides, the TGI with NCI-H226 lung, in the test on OVCAR-4 ovarian and in the test on HCT-15 colon was over 100 µM each time.

On to `Cc1c2c(OCCN3CCCCC3)nn(C)c(=O)c2c(C)n1-c1ccccc1`, for which the TGI was over 100 µM in the test with HOP-62 NSCLC; 47.9 µM in the test with SF-295 CNS; over 100 µM in the test with CCRF-CEM leukemia; 65.3 µM in the test on HCC-2998 colon; over 100 µM in the test with IGROV1 ovarian; over 100 µM in the test on U251 CNS. Besides, the TGI in the test with NCI-H226 lung, in the test on OVCAR-4 ovarian and in the test on HCT-15 colon was over 100 µM each time.

As to `C=C1C(=O)O[C@@H]2C[C@]3(C)CC[C@]4(C)[C@H](CC[C@@H]5[C@@]6(C)CCC(=O)C(C)(C)[C@@H]6CC[C@]54C)[C@H]3[C@H]12`, the TGI in the test on HOP-62 NSCLC was 49.2 µM; in the test on SF-295 CNS it was 33.6 µM; in the test on CCRF-CEM leukemia, 6.14 µM; with HCC-2998 colon it was 33.7 µM; with IGROV1 ovarian, 39.2 µM; in the test on U251 CNS, 38.4 µM. Also, the values for the TGI in the test on NCI-H226 lung, with OVCAR-4 ovarian and in the test on HCT-15 colon were 38.4 µM, 40.1 µM and 28.1 µM, respectively.

For `CN(C)CCCn1nc(N)c2nc3cc(Cl)ccc3nc21`, the TGI was over 100 µM in the test on HOP-62 NSCLC; over 100 µM with SF-295 CNS; 96.5 µM in the test with CCRF-CEM leukemia; over 100 µM in the test with HCC-2998 colon; 94.8 µM in the test on IGROV1 ovarian; over 100 µM in the test with U251 CNS. For the same compound, the TGI in the test on NCI-H226 lung, in the test on OVCAR-4 ovarian and in the test on HCT-15 colon was over 100 µM throughout.

Regarding `O=C(Nc1ccc(-n2ccc3c(NC(=O)c4ccccc4)ncnc32)cc1)Nc1cccc(Cl)c1Cl`, the GI50 is 0.983 µM in the test with HOP-62 NSCLC; 2.22 µM in the test on SF-295 CNS; 0.531 µM with CCRF-CEM leukemia; 2.99 µM in the test on HCC-2998 colon; 1.06 µM with IGROV1 ovarian; 0.571 µM with U251 CNS. The GI50 in the test on NCI-H226 lung is 1.07 µM; in the test with OVCAR-4 ovarian, 0.878 µM; in the test with HCT-15 colon, 0.156 µM. Besides, the TGI in the test on HOP-62 NSCLC is 2.15 µM; in the test with SF-295 CNS, over 50 µM; with CCRF-CEM leukemia it was 3.21 µM; in the test with HCC-2998 colon, 19.9 µM; with IGROV1 ovarian, 3.39 µM; in the test on U251 CNS, 1.4 µM. The TGI with NCI-H226 lung is 4.87 µM; in the test on OVCAR-4 ovarian, 1.91 µM; in the test on HCT-15 colon, 5.42 µM.

As for `O=C(O)CC1NCc2cc3ccccc3nc21` (stereo unspecified), the TGI in the test with HOP-62 NSCLC, in the test on SF-295 CNS, in the test with CCRF-CEM leukemia, with HCC-2998 colon, with IGROV1 ovarian and in the test on U251 CNS was over 100 µM in each case. The TGI in the test with NCI-H226 lung, in the test with OVCAR-4 ovarian and with HCT-15 colon was over 100 µM each time.

As for `COc1ccc2cc(CN3CCC(C4CCNCC4)CC3)ccc2c1`, the TGI with HOP-62 NSCLC came out at 8.98 µM; in the test on SF-295 CNS it was 3.5 µM; in the test with CCRF-CEM leukemia it was 12.7 µM; with HCC-2998 colon it was 1.41 µM; in the test with IGROV1 ovarian, 15.2 µM; in the test on U251 CNS, 3.74 µM. The TGI in the test on NCI-H226 lung was 29.2 µM; in the test with OVCAR-4 ovarian it was 31.3 µM; with HCT-15 colon, 6.44 µM.

With `CCCCCCCCCCC1OC([C@@H](O)CC[C@H](O)C2CC[C@@H](CCCCCCCC(O)CC3=CC(C)OC3=O)O2)CCC1O` (stereo partly specified), the GI50 in the test on HOP-62 NSCLC was 6.29 µM; in the test with SF-295 CNS, 4.31 µM; with IGROV1 ovarian it was 10.6 µM; in the test with U251 CNS, 4 µM; in the test on HCT-15 colon, 7.58 µM. The TGI in the test on HOP-62 NSCLC, in the test with SF-295 CNS, in the test on CCRF-CEM leukemia, with HCC-2998 colon, with IGROV1 ovarian and in the test on U251 CNS was over 25 µM throughout. Besides, the TGI in the test with NCI-H226 lung, in the test on OVCAR-4 ovarian and in the test on HCT-15 colon was over 25 µM throughout.

The values are drawn from PubChem BioAssay (NCI).
